According to ChEMBL document CHEMBL2380302, “Synthesis of 3-O-propargylated betulinic acid and its 1,2,3-triazoles as potential apoptotic agents” (Eur J Med Chem, 2013):

Legend:
HEp-2 [1] = test: Cytotoxicity against human Hep2 cells at 30 uM after 48 hrs by SRB assay; type: functional; settings: HEp-2, 48 h, read-out: GI
HL-60 [2] = test: Cytotoxicity against human HL60 cells at 50 uM after 48 hrs by SRB assay; type: functional; settings: HL-60, 48 h, read-out: GI
PC-3 [3] = test: Cytotoxicity against human PC3 cells after 48 hrs by SRB assay; type: functional, cell-based; settings: PC-3, 48 h
HCT-15 [4] = test: Cytotoxicity against human HCT15 cells after 48 hrs by SRB assay; type: functional, cell-based; settings: HCT-15, 48 h
HL-60 [5] = test: Cytotoxicity against human HL60 cells after 48 hrs by SRB assay; type: functional, cell-based; settings: HL-60, 48 h
PC-3 [6] = test: Cytotoxicity against human PC3 cells at 30 uM after 48 hrs by SRB assay; type: functional; settings: PC-3, 48 h, read-out: GI
HCT-15 [7] = test: Cytotoxicity against human HCT15 cells at 50 uM after 48 hrs by SRB assay; type: functional; settings: HCT-15, 48 h, read-out: GI
MCF7 [8] = test: Cytotoxicity against human MCF7 cells at 30 uM after 48 hrs by SRB assay; type: functional; settings: MCF7, 48 h, read-out: GI
HCT-15 [9] = test: Cytotoxicity against human HCT15 cells at 10 uM after 48 hrs by SRB assay; type: functional; settings: HCT-15, 48 h, read-out: GI
THP-1 [10] = test: Cytotoxicity against human THP1 cells at 10 uM after 48 hrs by SRB assay; type: functional; settings: THP-1, 48 h, read-out: GI
DU-145 [11] = test: Cytotoxicity against human DU145 cells at 10 uM after 48 hrs by SRB assay; type: functional; settings: DU-145, 48 h, read-out: GI
SF-295 [12] = test: Cytotoxicity against human SF295 cells after 48 hrs by SRB assay; type: functional, cell-based; settings: SF-295, 48 h
A549 [13] = test: Cytotoxicity against human A549 cells after 48 hrs by SRB assay; type: functional, cell-based; settings: A549, 48 h
HEp-2 [14] = test: Cytotoxicity against human Hep2 cells at 10 uM after 48 hrs by SRB assay; type: functional; settings: HEp-2, 48 h, read-out: GI
A549 [15] = test: Cytotoxicity against human A549 cells at 50 uM after 48 hrs by SRB assay; type: functional; settings: A549, 48 h, read-out: GI
HEp-2 [16] = test: Cytotoxicity against human Hep2 cells at 50 uM after 48 hrs by SRB assay; type: functional; settings: HEp-2, 48 h, read-out: GI
THP-1 [17] = test: Cytotoxicity against human THP1 cells after 48 hrs by SRB assay; type: functional, cell-based; settings: THP-1, 48 h
DU-145 [18] = test: Cytotoxicity against human DU145 cells at 50 uM after 48 hrs by SRB assay; type: functional; settings: DU-145, 48 h, read-out: GI
MCF7 [19] = test: Cytotoxicity against human MCF7 cells at 10 uM after 48 hrs by SRB assay; type: functional; settings: MCF7, 48 h, read-out: GI
HCT-15 [20] = test: Cytotoxicity against human HCT15 cells at 30 uM after 48 hrs by SRB assay; type: functional; settings: HCT-15, 48 h, read-out: GI
HL-60 [21] = test: Cytotoxicity against human HL60 cells at 30 uM after 48 hrs by SRB assay; type: functional; settings: HL-60, 48 h, read-out: GI
A549 [22] = test: Cytotoxicity against human A549 cells at 30 uM after 48 hrs by SRB assay; type: functional; settings: A549, 48 h, read-out: GI
HL-60 [23] = test: Cytotoxicity against human HL60 cells at 10 uM after 48 hrs by SRB assay; type: functional; settings: HL-60, 48 h, read-out: GI
SF-295 [24] = test: Cytotoxicity against human SF295 cells at 30 uM after 48 hrs by SRB assay; type: functional; settings: SF-295, 48 h, read-out: GI
THP-1 [25] = test: Cytotoxicity against human THP1 cells at 50 uM after 48 hrs by SRB assay; type: functional; settings: THP-1, 48 h, read-out: GI
DU-145 [26] = test: Cytotoxicity against human DU145 cells after 48 hrs by SRB assay; type: functional, cell-based; settings: DU-145, 48 h
MCF7 [27] = test: Cytotoxicity against human MCF7 cells at 50 uM after 48 hrs by SRB assay; type: functional; settings: MCF7, 48 h, read-out: GI
A549 [28] = test: Cytotoxicity against human A549 cells at 10 uM after 48 hrs by SRB assay; type: functional; settings: A549, 48 h, read-out: GI
HEp-2 [29] = test: Cytotoxicity against human Hep2 cells after 48 hrs by SRB assay; type: functional, cell-based; settings: HEp-2, 48 h
PC-3 [30] = test: Cytotoxicity against human PC3 cells at 50 uM after 48 hrs by SRB assay; type: functional; settings: PC-3, 48 h, read-out: GI
THP-1 [31] = test: Cytotoxicity against human THP1 cells at 30 uM after 48 hrs by SRB assay; type: functional; settings: THP-1, 48 h, read-out: GI
DU-145 [32] = test: Cytotoxicity against human DU145 cells at 30 uM after 48 hrs by SRB assay; type: functional; settings: DU-145, 48 h, read-out: GI
MCF7 [33] = test: Cytotoxicity against human MCF7 cells after 48 hrs by SRB assay; type: functional, cell-based; settings: MCF7, 48 h
PC-3 [34] = test: Cytotoxicity against human PC3 cells at 10 uM after 48 hrs by SRB assay; type: functional; settings: PC-3, 48 h, read-out: GI
SF-295 [35] = test: Cytotoxicity against human SF295 cells at 10 uM after 48 hrs by SRB assay; type: functional; settings: SF-295, 48 h, read-out: GI
SF-295 [36] = test: Cytotoxicity against human SF295 cells at 50 uM after 48 hrs by SRB assay; type: functional; settings: SF-295, 48 h, read-out: GI

Structure (SMILES) | inhibition of growth at 30 µM (HEp-2 [1]) [%] | inhibition of growth at 50 µM (HL-60 [2]) [%] | IC50 (PC-3 [3]) [µM] | IC50 (HCT-15 [4]) [µM] | IC50 (HL-60 [5]) [µM] | inhibition of growth at 30 µM (PC-3 [6]) [%] | inhibition of growth at 50 µM (HCT-15 [7]) [%] | inhibition of growth at 30 µM (MCF7 [8]) [%] | inhibition of growth at 10 µM (HCT-15 [9]) [%] | inhibition of growth at 10 µM (THP-1 [10]) [%] | inhibition of growth at 10 µM (DU-145 [11]) [%] | IC50 (SF-295 [12]) [µM] | IC50 (A549 [13]) [µM] | inhibition of growth at 10 µM (HEp-2 [14]) [%] | inhibition of growth at 50 µM (A549 [15]) [%] | inhibition of growth at 50 µM (HEp-2 [16]) [%] | IC50 (THP-1 [17]) [µM] | inhibition of growth at 50 µM (DU-145 [18]) [%] | inhibition of growth at 10 µM (MCF7 [19]) [%] | inhibition of growth at 30 µM (HCT-15 [20]) [%] | further results
C=C(C)[C@@H]1CC[C@]2(C(=O)O)CC[C@]3(C)[C@H](CC[C@@H]4[C@@]5(C)CC[C@H](OCc6cn(-c7ccccc7CO)nn6)C(C)(C)[C@@H]5CC[C@]43C)[C@@H]12 | 61 | 80 | 49 | 10 | 10 | 28 | 82 | 72 | 50 | 45 | 43 | 17 | 14 | 45 | 57 | 64 | 15 | 65 | 50 | 80 | inhibition of growth at 30 µM (HL-60 [21]): 69%; inhibition of growth at 30 µM (A549 [22]): 55%; inhibition of growth at 10 µM (HL-60 [23]): 50%; inhibition of growth at 30 µM (SF-295 [24]): 72%; inhibition of growth at 50 µM (THP-1 [25]): 78%; IC50 (DU-145 [26]): 16 µM; inhibition of growth at 50 µM (MCF7 [27]): 80%; inhibition of growth at 10 µM (A549 [28]): 54%; IC50 (HEp-2 [29]): 14 µM; inhibition of growth at 50 µM (PC-3 [30]): 52%; inhibition of growth at 30 µM (THP-1 [31]): 65%; inhibition of growth at 30 µM (DU-145 [32]): 55%; IC50 (MCF7 [33]): 10 µM; inhibition of growth at 10 µM (PC-3 [34]): 10%; inhibition of growth at 10 µM (SF-295 [35]): 35%; inhibition of growth at 50 µM (SF-295 [36]): 77%
C=C(C)[C@@H]1CC[C@]2(C(=O)O)CC[C@]3(C)[C@H](CC[C@@H]4[C@@]5(C)CC[C@H](O)C(C)(C)[C@@H]5CC[C@]43C)[C@@H]12 [BETULINIC ACID] | 66 | 98 | 37 | 12 | 17 | 29 | 94 | 36 | 45 | 30 | 12 | 22 | 31 | 41 | 74 | 78 | 20 | 84 | 7 | 80 | inhibition of growth at 30 µM (HL-60 [21]): 73%; inhibition of growth at 30 µM (A549 [22]): 48%; inhibition of growth at 10 µM (HL-60 [23]): 35%; inhibition of growth at 30 µM (SF-295 [24]): 88%; inhibition of growth at 50 µM (THP-1 [25]): 99%; IC50 (DU-145 [26]): 22 µM; inhibition of growth at 50 µM (MCF7 [27]): 80%; inhibition of growth at 10 µM (A549 [28]): 20%; IC50 (HEp-2 [29]): 16 µM; inhibition of growth at 50 µM (PC-3 [30]): 94%; inhibition of growth at 30 µM (THP-1 [31]): 69%; inhibition of growth at 30 µM (DU-145 [32]): 70%; IC50 (MCF7 [33]): 37 µM; inhibition of growth at 10 µM (PC-3 [34]): 8%; inhibition of growth at 10 µM (SF-295 [35]): 11%; inhibition of growth at 50 µM (SF-295 [36]): 99%
C=C(C)[C@@H]1CC[C@]2(C(=O)O)CC[C@]3(C)[C@H](CC[C@@H]4[C@@]5(C)CC[C@H](OCc6cn(-c7ccc(C(=O)c8ccccc8)cc7)nn6)C(C)(C)[C@@H]5CC[C@]43C)[C@@H]12 | 26 | 94 | > 50 | > 50 | 40 | 4 | 46 | 25 | 43 | 3 | 6 | > 50 | 36 | 25 | 58 | 25 | 44 | 50 | 29 | 41 | inhibition of growth at 30 µM (HL-60 [21]): 30%; inhibition of growth at 30 µM (A549 [22]): 37%; inhibition of growth at 10 µM (HL-60 [23]): 6%; inhibition of growth at 30 µM (SF-295 [24]): 19%; inhibition of growth at 50 µM (THP-1 [25]): 91%; IC50 (DU-145 [26]): 50 µM; inhibition of growth at 50 µM (MCF7 [27]): 44%; inhibition of growth at 10 µM (A549 [28]): 32%; IC50 (HEp-2 [29]): > 50 µM; inhibition of growth at 50 µM (PC-3 [30]): 3%; inhibition of growth at 30 µM (THP-1 [31]): 24%; inhibition of growth at 30 µM (DU-145 [32]): 9%; IC50 (MCF7 [33]): > 50 µM; inhibition of growth at 10 µM (PC-3 [34]): 6%; inhibition of growth at 10 µM (SF-295 [35]): 8%; inhibition of growth at 50 µM (SF-295 [36]): 12%
